Measured values reported in article PMC10492809, “A Bischler-Napieralski and homo-Mannich sequence enables diversified syntheses of sarpagine alkaloids and analogues” (Nature Communications, 2023).
Values joined by “and” are separate entries in the source; they are usually repeats but may differ in a detail not shown here. Equal values may be shown once. Read-outs that look alike come from different tables or passages of the source.

What was measured:
Type in all cases: cell-based
Hela = assay: MTT cell viability assay, Hela
Method: (§1) All cell lines were cultured at 37 °C with 5% CO2 in a humidified incubator. HeLa cells were grown in MEM (Gibco) supplemented with 10% fetal bovine serum (FBS, Hyclone) and 1% penicillin/streptomycin (Gibco). MIA PaCa-2, MDA-MB-231, A549, MCF-7, A375 and BEAS-2B cells were grown in DMEM (Gibco) supplemented with 10% FBS and 1% penicillin/streptomycin. CT26, and HCT116 cells were grown in RPMI-1640 supplemented with 10% FBS and 1% penicillin/streptomycin. All cell lines were purchased from the National Collection of Authenticated Cell Cultures (China).
(§2) The antiproliferative activities of the prepared compounds against tested cell lines were evaluated using a standard (MTT)-based colorimetric assay. Cells were plated at a density of 3000 cells/well in 96-well plates and allowed to adhere overnight. Then cells were treated with varying concentrations of synthesized compounds for 72 h. At the end of treatment, 20 μL of thiazolyl blue tetrazolium bromide (MTT) solution (5 mg/mL) was added to each well. Cells were incubated for an additional 4 h at 37 °C and then the medium was removed and replaced with 200 μL of DMSO. The absorbance (OD490) was read on a microplate reader (SpectraMax i3x, Molecular Devices, US). In all experiments, three replicate wells were used for each drug concentration. Each assay was performed at least three times. The IC50 values were calculated by GraphPad Prism 9, which were the mean values derived from three independent experiments.

MCF-7 = assay: MTT cell viability assay, MCF-7
Method: as §1, §2

MIA PaCa-2 = assay: MTT cell viability assay, MIA PaCa-2
Method: as §1, §2

MDA-MB-231 = assay: MTT cell viability assay, MDA-MB-231
Method: as §1, §2

CT26 = assay: MTT cell viability assay, CT26
Method: as §1, §2

HCT 116 = assay: MTT cell viability assay, HCT 116
Method: as §1, §2

A549 = assay: MTT cell viability assay, A549
Method: as §1, §2

[1] = test system: lung epithelial BEAS-2B cells; assay: MTT cytotoxicity towards normal cells, BEAS-2B; details: for CC50: MTT, 72 h, cytotoxicity towards normal cells, mean of at least three independent experiments; for IC50: source data sheet, single values of three experiments
Method: as §1, §2

A375 = assay: MTT cell viability assay, A375
Method: as §1, §2

cancer cell lines = assay: In vitro cancer cell assays (antiproliferation, cell line not given); details: for loss in antiproliferation activity on replacing the aldehyde group: SAR statement in words
Method: as §1, §2

[2] = MTT cytotoxicity towards normal cells, BEAS-2B; details: human
Method: as §1, §2

[3] = MTT, 72 h, mean of at least three independent experiments, read-out: IC50 Hela
[4] = source data sheet, single values of three experiments, read-out: MTT IC50 Hela
[5] = MTT, 72 h, mean of at least three independent experiments, read-out: IC50 MCF-7
[6] = source data sheet, single values of three experiments, read-out: MTT IC50 MCF-7
[7] = MTT, 72 h, mean of at least three independent experiments, read-out: IC50 MIA PaCa-2
[8] = source data sheet, single values of three experiments, read-out: MTT IC50 MIA PaCa-2
[9] = MTT, 72 h, mean of at least three independent experiments, read-out: IC50 MDA-MB-231
[10] = source data sheet, single values of three experiments, read-out: MTT IC50 MDA-MB-231
[11] = MTT, 72 h, mean of at least three independent experiments, read-out: IC50 CT26
[12] = source data sheet, single values of three experiments, read-out: MTT IC50 CT-26
[13] = MTT, 72 h, mean of at least three independent experiments, read-out: IC50 HCT 116
[14] = source data sheet, single values of three experiments, read-out: MTT IC50 HCT-116
[15] = MTT, 72 h, mean of at least three independent experiments, read-out: IC50 A549
[16] = source data sheet, single values of three experiments, read-out: MTT IC50 A549
[17] = MTT, 72 h, mean of at least three independent experiments, read-out: IC50 A375
[18] = source data sheet, single values of three experiments, read-out: MTT IC50 A375

| SMILES | IC50 (Hela; [3]) [µM] | IC50 (Hela; [4]) | IC50 (MCF-7; [5]) [µM] | IC50 (MCF-7; [6]) | IC50 (MIA PaCa-2; [7]) [µM] | IC50 (MIA PaCa-2; [8]) | IC50 (MDA-MB-231; [9]) [µM] | IC50 (MDA-MB-231; [10]) | IC50 (CT26; [11]) [µM] | IC50 (CT26; [12]) | IC50 (HCT 116; [13]) [µM] | IC50 (HCT 116; [14]) | IC50 (A549; [15]) [µM] | IC50 (A549; [16]) | CC50 [1] [µM] | IC50 [1] [µM] | IC50 (A375; [17]) [µM] | IC50 (A375; [18]) | loss in antiproliferation activity on replacing the aldehyde group (cancer cell lines) | other results |
| --- | --- | --- | --- | --- | --- | --- | --- | --- | --- | --- | --- | --- | --- | --- | --- | --- | --- | --- | --- | --- |
| CC=C1CN2C3CC1C(C=O)C2Cc1c3n(S(=O)(=O)c2ccc(C)cc2)c2ccccc12 (centres unmarked) [Compound 15ar] | 6.16 | 7.46 µM and 6.04 µM and 4.98 µM | 17.8 | 19.9 µM and 15.7 µM and 17.7 µM | 13.3 | 14.9 µM and 13 µM and 12 µM | 4.63 | 5.08 µM and 4.02 µM and 4.8 µM | 9.39 | 10.9 µM and 8.18 µM and 9.11 µM | 6.96 | 8.05 µM and 5.83 µM and 7.01 µM | 14.1 | 16.5 µM and 14 µM and 11.7 µM | > 100 | > 100 | 4.54 | 5.71 µM and 3.87 µM and 4.03 µM | – | – |
| C=C=C1CN2[C@H]3C[C@H]1[C@H](C=O)[C@@H]2Cc1c3n(S(=O)(=O)c2ccc(C)cc2)c2ccccc12 [Compound 15ad] | 4.37 | 5.18 µM and 4.35 µM and 3.58 µM | 11.3 | 10.5 µM and 14 µM and 9.22 µM | 12.1 | 12.3 µM and 14 µM and 10.1 µM | 3.07 | 3.01 µM and 3.83 µM and 2.38 µM | 8.14 | 10 µM and 7.29 µM and 7.11 µM | 5.25 | 6.65 µM and 4.08 µM and 5.02 µM | 10.4 | 9.24 µM and 12.1 µM and 10 µM | > 100 | > 100 | 3.57 | 5.01 µM and 2.69 µM and 3.01 µM | – | – |
| C=C=C1CN2[C@H]3C[C@H]1[C@H](C(=O)O)[C@@H]2Cc1c3n(S(=O)(=O)c2ccc(C)cc2)c2ccccc12 [Compound 15an] | – | – | – | – | – | – | – | – | – | – | – | – | – | – | – | – | – | – | complete | – |
| C=C=C1CN2[C@H]3C[C@H]1[C@H](CO)[C@@H]2Cc1c3n(S(=O)(=O)c2ccc(C)cc2)c2ccccc12 [Compound 15ao] | – | – | – | – | – | – | – | – | – | – | – | – | – | – | – | – | – | – | complete | – |
| CC=C1CN2C3CC1C(C=O)C2Cc1c3n(C)c2ccccc12 (centres unmarked) [Na-methylvellosimine (5), Na-methylvellosimine] | – | 21.9 µM and 20.4 µM | – | 40.8 µM and 39.9 µM | – | 23.5 µM and 27.3 µM | – | 22.8 µM and 18.8 µM | – | 20.7 µM and 23.8 µM | – | 22.5 µM and 23 µM | – | 19 µM and 20.4 µM | – | – | – | 25.9 µM and 27.8 µM | – | IC50 (Hela; Homo sapiens, HeLa, 72 h, MTT, 72 h, mean of at least three independent experiments, read-out: IC50 Hela): 22.3 µM; IC50 (Hela; Homo sapiens, HeLa, source data sheet, single values of three experiments, read-out: MTT IC50 Hela): 24.5 µM; IC50 (MCF-7; Homo sapiens, MCF7, 72 h, MTT, 72 h, mean of at least three independent experiments, read-out: IC50 MCF-7): 41.8 µM; IC50 (MCF-7; Homo sapiens, MCF7, source data sheet, single values of three experiments, read-out: MTT IC50 MCF-7): 44.7 µM; IC50 (MIA PaCa-2; Homo sapiens, MIA PaCa-2, 72 h, MTT, 72 h, mean of at least three independent experiments, read-out: IC50 MIA PaCa-2): 26.7 µM; IC50 (MIA PaCa-2; Homo sapiens, MIA PaCa-2, source data sheet, single values of three experiments, read-out: MTT IC50 MIA PaCa-2): 29.2 µM; IC50 (MDA-MB-231; Homo sapiens, MDA-MB-231, 72 h, MTT, 72 h, mean of at least three independent experiments, read-out: IC50 MDA-MB-231): 20.7 µM; IC50 (MDA-MB-231; Homo sapiens, MDA-MB-231, source data sheet, single values of three experiments, read-out: MTT IC50 MDA-MB-231): 20.4 µM; IC50 (CT26; Mus musculus, CT26, 72 h, MTT, 72 h, mean of at least three independent experiments, read-out: IC50 CT26): 21.4 µM; IC50 (CT26; Mus musculus, CT26, source data sheet, single values of three experiments, read-out: MTT IC50 CT-26): 19.6 µM; IC50 (HCT 116; Homo sapiens, HCT-116, 72 h, MTT, 72 h, mean of at least three independent experiments, read-out: IC50 HCT 116): 23.6 µM; IC50 (HCT 116; Homo sapiens, HCT-116, source data sheet, single values of three experiments, read-out: MTT IC50 HCT-116): 25.2 µM; IC50 (A549; Homo sapiens, A549, 72 h, MTT, 72 h, mean of at least three independent experiments, read-out: IC50 A549): 20.9 µM; IC50 (A549; Homo sapiens, A549, source data sheet, single values of three experiments, read-out: MTT IC50 A549): 23.1 µM; IC50 at 72 h ([2]; BEAS-2B lung epithelial cells (normal cells), source data sheet, single values of three experiments): > 100 µM; CC50 at 72 h ([2]; BEAS-2B lung epithelial cells, MTT, 72 h, cytotoxicity towards normal cells, mean of at least three independent experiments): > 100 µM; IC50 (A375; Homo sapiens, A-375, 72 h, MTT, 72 h, mean of at least three independent experiments, read-out: IC50 A375): 27.6 µM; IC50 (A375; Homo sapiens, A-375, source data sheet, single values of three experiments, read-out: MTT IC50 A375): 29.2 µM; antiproliferation activity in the in vitro cancer cell assays (cancer cell lines; result in words): moderate antiproliferation activity |
